Assay results: ChEMBL document CHEMBL3885881, “DrugMatrix”

Species: Rattus norvegicus
Experiment: DrugMatrix - Regimen: Daily Repeat
Assay type: toxicity, organism-based, Sprague-Dawley
Parameters: regimen Daily Repeat, gender Male, age 6-8 weeks
Details: in vivo, po, route oral GAVAGE, vehicle 100 % WATER; for ABSOLUTE BASOPHIL / ABSOLUTE EOSINOPHIL / ABSOLUTE LYMPHOCYTE / ABSOLUTE MONOCYTE / ABSOLUTE SEGMENTED NEUTROPHIL / BASOPHIL / EOSINOPHIL / ERYTHROCYTE COUNT / HEMATOCRIT / HEMOGLOBIN / LEUKOCYTE COUNT / LYMPHOCYTE / MEAN CORPUSCULAR HEMOGLOBIN / MEAN CORPUSCULAR HEMOGLOBIN CONCENTRATION / MEAN CORPUSCULAR VOLUME / MONOCYTE / NEUTROPHIL / NUCLEATED RED BLOOD CELLS / PLATELET COUNT: tissue Blood; for ALANINE AMINOTRANSFERASE / ALKALINE PHOSPHATASE / ASPARTATE AMINOTRANSFERASE / BLOOD UREA NITROGEN / CARBON DIOXIDE / CHLORIDE / CHOLESTEROL / CREATINE PHOSPHOKINASE / CREATININE / GLUCOSE / LACTATE DEHYDROGENASE / LIPASE / PHOSPHORUS / POTASSIUM / SODIUM / TOTAL BILIRUBIN / TOTAL PROTEIN / URIC ACID: tissue Plasma
[1] = 0 mg/kg, 72 h, dose level Control, time 3 day
[2] = 0 mg/kg, 120 h, dose level Control, time 5 day
[3] = […], 72 h, dose 7.5 mg/Kg, dose level Low, time 3 day
[4] = […], 120 h, dose 7.5 mg/Kg, dose level Low, time 5 day

## CNC1=Nc2ccc(Cl)cc2C(c2ccccc2)=[N+]([O-])C1 [CHLORDIAZEPOXIDE]
[1]
  ABSOLUTE BASOPHIL: 0 CELLS/uL
  ABSOLUTE EOSINOPHIL: 40 CELLS/uL
  ABSOLUTE LYMPHOCYTE: 13599.5 CELLS/uL
  ABSOLUTE MONOCYTE: 239.33 CELLS/uL
  ABSOLUTE SEGMENTED NEUTROPHIL: 1021.17 CELLS/uL
  BASOPHIL: 0%
  EOSINOPHIL: 0.33%
  ERYTHROCYTE COUNT: 5.71 x10E6/uL
  HEMATOCRIT: 36.35%
  HEMOGLOBIN: 14.05 G/DL
  LEUKOCYTE COUNT: 14.9 x10E3/uL
  LYMPHOCYTE: 91%
  MEAN CORPUSCULAR HEMOGLOBIN: 24.62 pg
  MEAN CORPUSCULAR HEMOGLOBIN CONCENTRATION: 38.65 G/DL
  MEAN CORPUSCULAR VOLUME: 63.7 fL
  MONOCYTE: 1.5%
  NEUTROPHIL: 7.17%
  NUCLEATED RED BLOOD CELLS: 0.33 /100WBC
  PLATELET COUNT: 1225.5 x10E3/uL
  ALANINE AMINOTRANSFERASE: 48.5 u/L
  ALKALINE PHOSPHATASE: 390.83 u/L
  ASPARTATE AMINOTRANSFERASE: 89 u/L
  BLOOD UREA NITROGEN: 14.83 mg/dL
  CARBON DIOXIDE: 24.83 mmol/L
  CHLORIDE: 100.83 MEQ/L
  CHOLESTEROL: 72.5 mg/dL
  CREATINE PHOSPHOKINASE: 503 u/L
  CREATININE: 0.2 mg/dL
  GLUCOSE: 163 mg/dL
  LACTATE DEHYDROGENASE: 316.83 u/L
  LIPASE: 9.83 u/L
  PHOSPHORUS: 11.57 mg/dL
  POTASSIUM: 6.16 MEQ/L
  SODIUM: 142.62 MEQ/L
  TOTAL BILIRUBIN: 0.2 mg/dL
  TOTAL PROTEIN: 5.8 G/DL
  URIC ACID: 1.65 mg/dL
[2]
  ABSOLUTE BASOPHIL: 0 CELLS/uL
  ABSOLUTE EOSINOPHIL: 21 CELLS/uL
  ABSOLUTE LYMPHOCYTE: 14288.5 CELLS/uL
  ABSOLUTE MONOCYTE: 205.33 CELLS/uL
  ABSOLUTE SEGMENTED NEUTROPHIL: 968.5 CELLS/uL
  BASOPHIL: 0%
  EOSINOPHIL: 0.17%
  ERYTHROCYTE COUNT: 5.83 x10E6/uL
  HEMATOCRIT: 36.53%
  HEMOGLOBIN: 14.4 G/DL
  LEUKOCYTE COUNT: 15.48 x10E3/uL
  LYMPHOCYTE: 92%
  MEAN CORPUSCULAR HEMOGLOBIN: 24.72 pg
  MEAN CORPUSCULAR HEMOGLOBIN CONCENTRATION: 39.43 G/DL
  MEAN CORPUSCULAR VOLUME: 62.68 fL
  MONOCYTE: 1.33%
  NEUTROPHIL: 6.5%
  NUCLEATED RED BLOOD CELLS: 0.17 /100WBC
  PLATELET COUNT: 1280.5 x10E3/uL
  ALANINE AMINOTRANSFERASE: 50 u/L
  ALKALINE PHOSPHATASE: 380.17 u/L
  ASPARTATE AMINOTRANSFERASE: 82.67 u/L
  BLOOD UREA NITROGEN: 15.33 mg/dL
  CARBON DIOXIDE: 27.17 mmol/L
  CHLORIDE: 100.33 MEQ/L
  CHOLESTEROL: 60.67 mg/dL
  CREATINE PHOSPHOKINASE: 441.5 u/L
  CREATININE: 0.16 mg/dL
  GLUCOSE: 146 mg/dL
  LACTATE DEHYDROGENASE: 189.33 u/L
  LIPASE: 9.17 u/L
  PHOSPHORUS: 11.67 mg/dL
  POTASSIUM: 6.86 MEQ/L
  SODIUM: 142.33 MEQ/L
  TOTAL BILIRUBIN: 0.2 mg/dL
  TOTAL PROTEIN: 6.12 G/DL
  URIC ACID: 1.82 mg/dL
[3]
  ABSOLUTE BASOPHIL: 0 CELLS/uL
  ABSOLUTE EOSINOPHIL: 54 CELLS/uL
  ABSOLUTE LYMPHOCYTE: 12748.67 CELLS/uL
  ABSOLUTE MONOCYTE: 258 CELLS/uL
  ABSOLUTE SEGMENTED NEUTROPHIL: 2072.67 CELLS/uL
  BASOPHIL: 0%
  EOSINOPHIL: 0.33%
  ERYTHROCYTE COUNT: 5.45 x10E6/uL
  HEMATOCRIT: 34.1%
  HEMOGLOBIN: 13.23 G/DL
  LEUKOCYTE COUNT: 15.13 x10E3/uL
  LYMPHOCYTE: 84.33%
  MEAN CORPUSCULAR HEMOGLOBIN: 24.3 pg
  MEAN CORPUSCULAR HEMOGLOBIN CONCENTRATION: 38.8 G/DL
  MEAN CORPUSCULAR VOLUME: 62.57 fL
  MONOCYTE: 1.67%
  NEUTROPHIL: 13.67%
  NUCLEATED RED BLOOD CELLS: 0.33 /100WBC
  PLATELET COUNT: 1319 x10E3/uL
  ALANINE AMINOTRANSFERASE: 50.33 u/L
  ALKALINE PHOSPHATASE: 379.67 u/L
  ASPARTATE AMINOTRANSFERASE: 95 u/L
  BLOOD UREA NITROGEN: 15.67 mg/dL
  CARBON DIOXIDE: 26 mmol/L
  CHLORIDE: 101 MEQ/L
  CHOLESTEROL: 60.33 mg/dL
  CREATINE PHOSPHOKINASE: 360.33 u/L
  CREATININE: 0.17 mg/dL
  GLUCOSE: 162.33 mg/dL
  LACTATE DEHYDROGENASE: 326.33 u/L
  LIPASE: 8.67 u/L
  PHOSPHORUS: 12.63 mg/dL
  POTASSIUM: 7.24 MEQ/L
  SODIUM: 142.77 MEQ/L
  TOTAL BILIRUBIN: 0.27 mg/dL
  TOTAL PROTEIN: 5.87 G/DL
  URIC ACID: 2 mg/dL
[4]
  ABSOLUTE BASOPHIL: 0 CELLS/uL
  ABSOLUTE EOSINOPHIL: 0 CELLS/uL
  ABSOLUTE LYMPHOCYTE: 13599 CELLS/uL
  ABSOLUTE MONOCYTE: 187.67 CELLS/uL
  ABSOLUTE SEGMENTED NEUTROPHIL: 813.33 CELLS/uL
  BASOPHIL: 0%
  EOSINOPHIL: 0%
  ERYTHROCYTE COUNT: 5.46 x10E6/uL
  HEMATOCRIT: 34.73%
  HEMOGLOBIN: 13.83 G/DL
  LEUKOCYTE COUNT: 14.6 x10E3/uL
  LYMPHOCYTE: 93%
  MEAN CORPUSCULAR HEMOGLOBIN: 25.37 pg
  MEAN CORPUSCULAR HEMOGLOBIN CONCENTRATION: 39.83 G/DL
  MEAN CORPUSCULAR VOLUME: 63.7 fL
  MONOCYTE: 1.33%
  NEUTROPHIL: 5.67%
  NUCLEATED RED BLOOD CELLS: 0 /100WBC
  PLATELET COUNT: 1349.33 x10E3/uL
  ALKALINE PHOSPHATASE: 303.33 u/L
  ASPARTATE AMINOTRANSFERASE: 68.67 u/L
  BLOOD UREA NITROGEN: 17.67 mg/dL
  CARBON DIOXIDE: 27.33 mmol/L
  CHLORIDE: 101.33 MEQ/L
  CHOLESTEROL: 63.67 mg/dL
  CREATINE PHOSPHOKINASE: 199.33 u/L
  CREATININE: 0.15 mg/dL
  GLUCOSE: 159.33 mg/dL
  LACTATE DEHYDROGENASE: 110 u/L
  LIPASE: 8.67 u/L
  PHOSPHORUS: 11.87 mg/dL
  POTASSIUM: 6.75 MEQ/L
  SODIUM: 144.03 MEQ/L
  TOTAL BILIRUBIN: 0.23 mg/dL
  TOTAL PROTEIN: 5.83 G/DL
  URIC ACID: 1.47 mg/dL
